The results in this text go back to US20130005743A1, “New positive allosteric modulators of nicotinic acetylcholine receptor” (H. Lundbeck A/S, priority 2011, published 2013).

For this test, the target named is T1, human α7 receptor (Homo sapiens, UniProt P36544).
T1 construct: host or cells: rat GH4C1 cell line
Nature of the test: α7 NNR flux assay (FDSS Ca assay, positive allosteric modulation of acetylcholine response). The test is classed as cell-based. The settings on record: human α7 receptor stably expressed in rat GH4C1 cells; acetylcholine 20 μM; % modulation relative to PNU-120596 set to 100%. On the procedure:
The nicotinic acetylcholine receptor α7 is a calcium-permeable ion channel, whose activity can be measured by over expression in mammalian cells or oocytes. In this version of the assay, the human α7 receptor is stably expressed in the rat GH4C1 cell line. The assay was used to identify positive allosteric modulators (PAMs) of the α7 receptor. Activation of the channel was measured by loading cells with the calcium-sensitive fluorescent dye. Calcium-4 (Assay kit from Molecular Devices), and then measuring real-time changes, in fluorescence upon treatment with test compounds.
The cell line ChanClone GH4C1-nAChRalpha7 from Genionics was seeded from frozen stock in 384-well plates in culture media 2-3 days before experiment to form an approximately 80% confluent layer on the day of experiment.
The cell culture were split into “22.5 cm×22.5 cm”-plates with approximately 100×10^3 cells/cm^2. After four days incubation in a humidified incubator at 37° C. and 5% CO2, it had grown to an 80-90% confluent layer, and the cells were harvested.
Two or three days before the experiment the cells were seeded in 384 well plates from Greiner bio-one (781946, CELLCOAT, Poly-D-Lysine, black, μClear).
The cells were seeded in 384 well plates with 30 μL/well (30000 cells/well) while stirring the cell suspension or otherwise preventing the cells from precipitating.
The loading buffer was 5% v/v Calcium-4 Kit and 2.5 mM Probenecid in assay buffer.
Culture media was removed from the cell plates and 20 μL loading buffer was added in each well. The cell plates were placed in trays and incubated 90 minutes in the incubator (37° C.). Thereafter the plates were incubated 30 minutes at room temperature, still protected from light.
The assay buffer was HBSS with 20 mM HEPES, pH 7.4 and 3 mM CaCl2.
[…] 10 mM compound solution in DMSO was diluted in 50 μL assay buffer. The final test concentrations in the cell plates were 20-10-5-2.5-1.25-0.625-0.312-0.156-0.078-0.039 μM. Assay buffer and 3 μM PNU-120596 were used for control. The agonist acetylcholine was added to a final concentration of 20 μM (˜EC100). In the FDSS7000 the Ex480-Em540 was measured with 1 second intervals. The baseline was made of 5 frames before addition of test compounds, and 95 frames more were made before addition of acetylcholine. The measurement stopped 30 frames after the 2nd addition. Raw data for each well were collected as “the maximum fluorescence count” in the interval 100-131 seconds and as “the average fluorescence count” in the interval 96-100 seconds. The positive allosteric modulation in the 2nd addition was the enhancement of agonist response with test compound compared to agonist alone.
Results were calculated as % modulation of test compound compared to the reference PNU-120596 set to 100%.

T1 sequence (P36544 23-502): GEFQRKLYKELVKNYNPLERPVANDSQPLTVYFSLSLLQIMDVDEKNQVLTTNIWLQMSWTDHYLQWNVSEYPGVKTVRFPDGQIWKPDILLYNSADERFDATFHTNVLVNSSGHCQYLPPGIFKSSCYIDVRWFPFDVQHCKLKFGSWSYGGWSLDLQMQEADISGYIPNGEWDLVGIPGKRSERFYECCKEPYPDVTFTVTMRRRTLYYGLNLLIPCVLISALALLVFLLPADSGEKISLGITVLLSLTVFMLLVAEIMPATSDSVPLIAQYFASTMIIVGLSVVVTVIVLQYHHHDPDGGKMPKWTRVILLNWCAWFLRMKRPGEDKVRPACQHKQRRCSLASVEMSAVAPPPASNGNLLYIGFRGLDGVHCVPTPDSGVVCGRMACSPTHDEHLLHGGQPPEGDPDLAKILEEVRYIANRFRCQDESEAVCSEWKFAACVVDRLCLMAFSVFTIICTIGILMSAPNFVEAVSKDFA

`Cc1cc(C(=O)Nc2c(C)ccnc2C)c2c(C)nn(-c3ccccc3)c2n1` [Compound 2, 3,6-Dimethyl-1-phenyl-1H-pyrazolo[3,4-b]pyridine-4-carboxylic acid (2,4-dimethyl-pyridin-3-yl)-amide] displayed an EC50 of 3.6 µM.
Consider `Cc1cc(C(=O)Nc2c(C)cncc2C)c2c(C)nn(-c3ccccc3)c2n1` [Compound 3, 3,6-Dimethyl-1-phenyl-1H-pyrazolo[3,4-b]pyridine-4-carboxylic acid (3,5-dimethyl-pyridin-4-yl)-amide], for which the EC50 is 4.1 µM.
On to `COc1ccccc1-n1nc(C)c2c(C(=O)Nc3c(C)ccnc3C)cc(C)nc21` [Compound 4, 1-(2-Methoxy-phenyl)-3,6-dimethyl-1H-pyrazolo[3,4-b]pyridine-4-carboxylic acid (2,4-dimethyl-pyridin-3-yl)-amide], for which a half-maximal effect (EC50) was put at 7.1 µM.
As for `COc1ccc(-n2nc(C)c3c(C(=O)Nc4cccnc4C)cc(C)nc32)cc1` [Compound 5, 1-(4-Methoxy-phenyl)-3,6-dimethyl-1H-pyrazolo[3,4-b]pyridine-4-carboxylic acid (2-methyl-pyridin-3-yl)-amide], the figure is 3.3 µM.
The molecule `Cc1ccc(-n2nc(C)c3c(C(=O)Nc4c(C)ccnc4C)cc(C)nc32)cc1` [Compound 6, 3,6-Dimethyl-1-p-tolyl-1H-pyrazolo[3,4-b]pyridine-4-carboxylic acid (2,4-dimethyl-pyridin-3-yl)-amide] registered an EC50 of 2.5 µM.
As for `COc1ccc(-n2nc(C)c3c(C(=O)Nc4c(C)ccnc4OC)cc(C)nc32)cc1` [Compound 7, 1-(4-Methoxy-phenyl)-3,6-dimethyl-1H-pyrazolo[3,4-b]pyridine-4-carboxylic acid (2-methoxy-4-methyl-pyridin-3-yl)-amide], the figure is 2.2 µM.
Take `COc1ccc(-n2nc(C)c3c(C(=O)Nc4cnccc4C)cc(C)nc32)cc1` [Compound 8, 1-(4-Methoxy-phenyl)-3,6-dimethyl-1H-pyrazolo[3,4-b]pyridine-4-carboxylic acid (4-methyl-pyridin-3-yl)-amide]: the response was half-maximal at 5.1 µM (EC50).
As for `COc1cccc(-n2nc(C)c3c(C(=O)Nc4c(C)ccnc4C)cc(C)nc32)c1` [Compound 9, 1-(3-Methoxy-phenyl)-3,6-dimethyl-1H-pyrazolo[3,4-b]pyridine-4-carboxylic acid (2,4-dimethyl-pyridin-3-yl)-amide], the figure is 4 µM.
As for `Cc1ccc(-n2nc(C)c3c(C(=O)Nc4c(C)ccnc4C)cc(C)nc32)cn1` [Compound 10, 3,6-Dimethyl-1-(6-methyl-pyridin-3-yl)-1H-pyrazolo[3,4-b]pyridine-4-carboxylic acid (2,4-dimethyl-pyridin-3-yl)-amide], the figure is 7.2 µM.
Next, `COc1ccc(-n2ncc3c(C(=O)Nc4c(C)ccnc4C)cc(C)nc32)cc1` [Compound 11, 1-(4-Methoxy-phenyl)-6-methyl-1H-pyrazolo[3,4-b]pyridine-4-carboxylic acid (2,4-dimethyl-pyridin-3-yl)-amide]: 2.8 µM; `COc1ccc(-n2nc(C)c3c(C(=O)Nc4c(C)ncnc4C)cc(C)nc32)cc1` [Compound 12, 1-(4-Methoxy-phenyl)-3,6-dimethyl-1H-pyrazolo[3,4-b]pyridine-4-carboxylic acid (4,6-dimethyl-pyrimidin-5-yl)-amide]: 4.9 µM.
The molecule `Cc1cc(C(=O)Nc2c(C)ccnc2C)c2c(C)nn(-c3ccc(F)cc3)c2n1` [Compound 13, 1-(4-Fluoro-phenyl)-3,6-dimethyl-1H-pyrazolo[3,4-b]pyridine-4-carboxylic acid (2,4-dimethyl-pyridin-3-yl)-amide] registered an EC50 of 7.8 µM.
Molecule `Cc1cc(C(=O)Nc2c(C)ccnc2C)c2c(C)nn(-c3ccc(C#N)cc3)c2n1` [Compound 14, 1-(4-Cyano-phenyl)-3,6-dimethyl-1H-pyrazolo[3,4-b]pyridine-4-carboxylic acid (2,4-dimethyl-pyridin-3-yl)-amide] showed an EC50 of 6.3 µM.
As for `COc1ccc(-n2nc(C)c3c(C(=O)Nc4c(C)ccnc4C)ccnc32)cc1` [Compound 15, 1-(4-Methoxy-phenyl)-3-methyl-1H-pyrazolo[3,4-b]pyridine-4-carboxylic acid (2,4-dimethyl-pyridin-3-yl)-amide], the figure is 6 µM; as for `COc1ccc(-n2nc(C)c3c(C(=O)Nc4c(C)ccnc4C)cc(C)nc32)cn1` [Compound 16, 1-(6-Methoxy-pyridin-3-yl)-3,6-dimethyl-1H-pyrazolo[3,4-b]pyridine-4-carboxylic acid (2,4-dimethyl-pyridin-3-yl)-amide], 5.5 µM; as for `Cc1cc(C(=O)Nc2c(C)ccnc2C)c2c(C)nn(-c3ccc(OC(F)(F)F)cc3)c2n1` [Compound 17, 3,6-Dimethyl-1-(4-trifluoromethoxy-phenyl)-1H-pyrazolo[3,4-b]pyridine-4-carboxylic acid (2,4-dimethyl-pyridin-3-yl)-amide], 11 µM.
Consider `COc1ccc(-n2nc(C)c3c(C(=O)Nc4c(C)cc(C)nc4C)cc(C)nc32)cc1` [Compound 18, 1-(4-Methoxy-phenyl)-3,6-dimethyl-1H-pyrazolo[3,4-b]pyridine-4-carboxylic acid (2,4,6-trimethyl-pyridin-3-yl)-amide], for which a half-maximal response (EC50) required 6.5 µM.
Molecule `Cc1cc(C(=O)Nc2c(C)ccnc2C)c2c(C)nn(-c3ccc(OC(F)F)cc3)c2n1` [Compound 19, 1-(4-Difluoromethoxy-phenyl)-3,6-dimethyl-1H-pyrazolo[3,4-b]pyridine-4-carboxylic acid (2,4-dimethyl-pyridin-3-yl)-amide] displayed an EC50 of 3.3 µM.
Take `COc1ccc(-n2nc(C)c3c(C(=O)Nc4cncnc4C)cc(C)nc32)cc1` [Compound 20, 1-(4-Methoxy-phenyl)-3,6-dimethyl-1H-pyrazolo[3,4-b]pyridine-4-carboxylic acid (4-methyl-pyrimidin-5-yl)-amide]: it took 4.6 µM to reach a half-maximal effect (EC50).
Next, `Cc1cc(C(=O)Nc2c(C)ccnc2C)c2c(C)nn(-c3ccc(N(C)C)cc3)c2n1` [Compound 23, 1-(4-Dimethylamino-phenyl)-3,6-dimethyl-1H-pyrazolo[3,4-b]pyridine-4-carboxylic acid (2,4-dimethyl-pyridin-3-yl)-amide]: 3.6 µM; `Cc1cc(C(=O)Nc2c(C)ccnc2C)c2c(C)nn(-c3ccsc3)c2n1` [Compound 25, 3,6-Dimethyl-1-thiophen-3-yl-1H-pyrazolo[3,4-b]pyridine-4-carboxylic acid (2,4-dimethyl-pyridin-3-yl)-amide]: 7.2 µM.
Take `Cc1cc(C(=O)Nc2c(C)ccnc2C)c2c(C)nn(-c3cncnc3)c2n1` [Compound 26, 3,6-Dimethyl-1-pyrimidin-5-yl-1H-pyrazolo[3,4-b]pyridine-4-carboxylic acid (2,4-dimethyl-pyridin-3-yl)-amide]: the EC50 was 11 µM.
For `COc1ccnc(C)c1NC(=O)c1cc(C)nc2c1c(C)nn2-c1ccccc1` [Compound 28, 3,6-Dimethyl-1-phenyl-1H-pyrazolo[3,4-b]pyridine-4-carboxylic acid (4-methoxy-2-methyl-pyridin-3-yl)-amide], the EC50 was determined as 6.5 µM.
Molecule `COc1ccc(-n2nc(C)c3c(C(=O)Nc4cnccc4N(C)C)cc(C)nc32)cc1` [Compound 30, 1-(4-Methoxy-phenyl)-3,6-dimethyl-1H-pyrazolo[3,4-b]pyridine-4-carboxylic acid (4-dimethylamino-pyridin-3-yl)-amide] had an EC50 of 2.7 µM.
In the case of `COc1ccc(-n2nc(C)c3c(C(=O)Nc4cnc(C)cc4C)cc(C)nc32)cc1` [Compound 33, 1-(4-Methoxy-phenyl)-3,6-dimethyl-1H-pyrazolo[3,4-b]pyridine-4-carboxylic acid (4,6-dimethyl-pyridin-3-yl)-amide], the EC50 is 8.9 µM.
Consider `Cc1cc(C(=O)Nc2c(C)ccnc2C)c2c(C)nn(-c3ccc(O)cc3)c2n1` [Compound 37, 1-(4-Hydroxy-phenyl)-3,6-dimethyl-1H-pyrazolo[3,4-b]pyridine-4-carboxylic acid (2,4-dimethyl-pyridin-3-yl)-amide], for which a half-maximal response (EC50) required 9.5 µM.
